Test results taken from patent publication US20040132188A1, “Use of non-complexing peptides for the preparation of a composition for transfection of a polynucleotide into a cell and compositions useful in gene therapy” (priority 2001, published 2004).
Ends that are not written are not given here.

Experiments:
[1] = Liposome leakage assay, calcein-containing POPC liposomes; format: biochemical
Method: (§1) Leakage activity was plotted against peptide concentration.
The peptide ppTG1 was tested for its capacity to cause membrane disruption in a liposome leakage assay with POPC liposomes containing the fluorescent product calcein. […] Release of calcein by Triton X-100 treatment was taken as positive control reaction, incubation with water served as negative control. The membranolytic activity of peptide ppTG1 (20 μg as starting point) was compared with those of equal quantities (20 μg) of JTS-1, JTS-1-K13 and KALA.

[2] = Liposome leakage assay, POPC/cholesterol 3:2 liposomes; format: biochemical
From the text: FIG. 9: Liposome leakage assay. […] Emitted fluorescence was plotted against peptide concentration. […] C) Comparison of ppTG1, ppTG20 and ppTG21 at pH 7.
as §1

293-EBNA cells = test: Transfection in vitro, luciferase plasmid pTG11056; format: cell-based; conditions: charge ratio around 1
Method: Cells were plated on 24 well plates at a density of 4×10^4 (293-EBNA ) or 7×10^4 (HeLa, Renca) cells/well in DMEM supplemented with 10% FCS. The next day, the medium was replaced by 200 μl serum-free DMEM and plasmid (PTG11056 or pTG11236)/peptide complexes or plasmid/peptide/lipid complexes were prepared in 30 μl 0.9% NaCl or 5% glucose. After 20 min at room temperature these complexes were added to the cells which were then incubated for 2-3 h at 37° C. and 5% CO2 before 1 ml serum-containing DMEM was added. Approximately 20 hours later, cells were lysed by addition of 100 μl 1× Promega lysis buffer, 20 μl of the lysates were analysed for luciferase activity. Proteins were quantified with the bicinchonic acid (BCA) colorimetric method (Smith, Anal. Biochem. 150 (1985), 76-85).
4×10^4 293-EBNA cells, plated on 24 well plates the day before, were transfected with 0.5 μg, 0.1 μg, 0.05 μg arid 0.01 μg of the plasmid pTG11056. The plasmid was either mixed with completely or uncompletely DNA-complexing amounts of ppTG1 in 30 μl 5% glucose and after 20 min at room temperature the mixture was added to the cells which were incubated in 200 μl serum-free medium. Further, pTG11056 was formulated with the established transfection reagents Lipofectin and PEI. […] After twenty hours, cells were washed and luciferase activity was determined in ⅕of the lysed cells.

[3] = Liposome leakage assay, POPC/cholesterol 3:2 liposomes; format: biochemical; conditions: POPC/chol liposomes, pH 5

Sequence: GLFKALLKLLKSLWKLLLKA
- membrane disruption ([1]; pH 5): capable of causing membrane disruption
- membrane disruption ([1]; pH 7): capable of causing membrane disruption
- liposome leakage activity ([2]; POPC/Chol (3:2) liposomes, pH not separated (compared at pH 5 and pH 7)): destabilizes efficiently
- liposome leakage activity / calcein release ([2]; POPC/chol liposomes, pH 7): efficiently liberate calcein
- liposome leakage of peptide/plasmid pTG11236 complexes ([2]; charge ratios (P/N) of 1 or 0.8, pH 7): slightly reduced
- liposome leakage of peptide/plasmid pTG11236 complexes ([2]; excess of peptide, P/N 5 or 10, pH 7): comparable to free ppTG1
- transfection efficiency (293-EBNA cells; 0.05 μg pTG11056 with 0.065 μg peptide): high transfection efficiency
- luciferase activities (293-EBNA cells; 0.5 μg pTG11056 with 0.65 μg peptide): higher than those observed with complexes formed with Lipofectin or PEI
- liposome leakage activity / calcein release [3]: efficiently liberate calcein
